{"source": "paper PMC7857491", "about": "“Quantification and characterization of the 5′ exonuclease activity of the lysosomal nuclease PLD3 by a novel cell-based assay” (The Journal of Biological Chemistry, 2020)", "target": "Phospholipase D3 (PLD3) (Homo sapiens, UniProt Q8IV08)", "sequence (Q8IV08 whole entry)": "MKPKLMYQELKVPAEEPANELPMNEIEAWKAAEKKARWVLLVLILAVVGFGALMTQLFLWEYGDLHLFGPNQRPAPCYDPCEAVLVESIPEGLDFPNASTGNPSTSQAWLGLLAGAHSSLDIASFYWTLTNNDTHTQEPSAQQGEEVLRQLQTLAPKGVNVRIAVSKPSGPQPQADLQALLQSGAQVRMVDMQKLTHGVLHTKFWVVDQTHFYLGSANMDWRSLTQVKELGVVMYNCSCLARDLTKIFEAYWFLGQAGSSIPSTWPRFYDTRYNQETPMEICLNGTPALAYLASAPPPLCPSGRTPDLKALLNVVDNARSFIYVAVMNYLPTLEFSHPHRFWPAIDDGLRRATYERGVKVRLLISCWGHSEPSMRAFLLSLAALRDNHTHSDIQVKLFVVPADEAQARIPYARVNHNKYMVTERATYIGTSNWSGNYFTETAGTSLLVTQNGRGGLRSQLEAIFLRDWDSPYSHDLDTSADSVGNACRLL"}
{"smiles": "[O]=[V]([OH])([OH])[OH]", "note": "[orthovanadate]", "values": [{"measurement": "IC50", "result": 10, "unit": "µM"}]}
